In patent publication US6376537B1, “Cancer treatment” (priority 2000, dated 2002):

Experiments:
hepatocellular carcinoma = assay: Liver cancer case report, oral Simvastatin treatment; assay type: in vivo, human
Experimental: (§1) Its use according to this invention in the treatment of malignant disease consists of daily administration of an 80 mg tablet orally.
(§2) In order to avoid unforeseen side effects, the treatment is initiated at about 20 mg dose tablet once daily for one week. The dose then is increased to about 40 mg once daily for an additional week. The following week the dose is increased to about 60 mg and on the fourth week the dose is increased to about 80 mg (two tablets of 40 mg each), and to remain so indefinitely. The intervals for stepping up the dosage can vary.

metastatic colon cancer = assay: Colon cancer case reports, oral Simvastatin treatment; assay type: in vivo, human; conditions: Case #1, 20 mg daily raised to 80 mg; over three to four months
Experimental: as §1, §2
Case #1: business person who underwent hemicolectomy for adenocarcinoma of the colon in 1993 was presented in 1995 to Cedars Sinai Medical Center Liver Team for possible cryotherapy. At that time they had multiple masses in both lobes of the liver as well as outside their liver and multiple nodules in both lungs. Clinically they were bedridden, weak and malnourished. They were rejected as a suitable candidate for needle cryotherapy because of their advanced disease, and was considered unrescuable with a life expectancy of several weeks.
The dose was increased by 20 mg increments every two weeks up to the dose of 80 mg. […] […] gained 27 pounds, became normally active, including extensive travel around the world.
Case #2: person underwent hemicolectomy for cancer of the colon in 1995 because of intestinal obstruction. […]

## CCC(C)(C)C(=O)O[C@H]1C[C@@H](C)C=C2C=C[C@H](C)[C@H](CC[C@@H]3C[C@@H](O)CC(=O)O3)[C@H]21 [Simvastatin]
Hepatocellular carcinoma; patient, baseline above 55,000, started January 1999, value by April of 1999
  tumor marker alpha fetoprotein: less than 8
Hepatocellular carcinoma; same patient, value in March 2000
  tumor marker alpha fetoprotein: 2.4
Metastatic colon cancer
  weight gain: 27 pounds
